Experimental data taken from ChEMBL document CHEMBL3351476, “The discovery of I-BET726 (GSK1324726A), a potent tetrahydroquinoline ApoA1 up-regulator and selective BET bromodomain inhibitor” (J Med Chem, 2014).
pIC50, pKd: −log10 of the molar value.

Key:
[1] = Terminal half life in Balb/c mouse at 10 mg/kg, iv as bolus dose; assay type: ADME, organism-based; parameters: dose 10 mg/kg, route intravenous; settings: in vivo, read-out: beta t1/2 (converted)
[2] = Volume of distribution at steady state in Balb/c mouse at 10 mg/kg, iv as bolus dose; assay type: ADME, organism-based; parameters: dose 10 mg/kg, route intravenous; settings: in vivo, read-out: Vdss
[3] = molecular target: CREB-binding protein (Homo sapiens, UniProt Q92793); assay: Binding affinity to CREBBP (unknown origin) by ITC method
[4] = molecular target: Transcription intermediary factor 1-alpha (Homo sapiens, UniProt O15164); assay: Inhibition of human TIF1alpha bromodomain by BROMOscan assay
Chain of Transcription intermediary factor 1-alpha (O15164 whole entry): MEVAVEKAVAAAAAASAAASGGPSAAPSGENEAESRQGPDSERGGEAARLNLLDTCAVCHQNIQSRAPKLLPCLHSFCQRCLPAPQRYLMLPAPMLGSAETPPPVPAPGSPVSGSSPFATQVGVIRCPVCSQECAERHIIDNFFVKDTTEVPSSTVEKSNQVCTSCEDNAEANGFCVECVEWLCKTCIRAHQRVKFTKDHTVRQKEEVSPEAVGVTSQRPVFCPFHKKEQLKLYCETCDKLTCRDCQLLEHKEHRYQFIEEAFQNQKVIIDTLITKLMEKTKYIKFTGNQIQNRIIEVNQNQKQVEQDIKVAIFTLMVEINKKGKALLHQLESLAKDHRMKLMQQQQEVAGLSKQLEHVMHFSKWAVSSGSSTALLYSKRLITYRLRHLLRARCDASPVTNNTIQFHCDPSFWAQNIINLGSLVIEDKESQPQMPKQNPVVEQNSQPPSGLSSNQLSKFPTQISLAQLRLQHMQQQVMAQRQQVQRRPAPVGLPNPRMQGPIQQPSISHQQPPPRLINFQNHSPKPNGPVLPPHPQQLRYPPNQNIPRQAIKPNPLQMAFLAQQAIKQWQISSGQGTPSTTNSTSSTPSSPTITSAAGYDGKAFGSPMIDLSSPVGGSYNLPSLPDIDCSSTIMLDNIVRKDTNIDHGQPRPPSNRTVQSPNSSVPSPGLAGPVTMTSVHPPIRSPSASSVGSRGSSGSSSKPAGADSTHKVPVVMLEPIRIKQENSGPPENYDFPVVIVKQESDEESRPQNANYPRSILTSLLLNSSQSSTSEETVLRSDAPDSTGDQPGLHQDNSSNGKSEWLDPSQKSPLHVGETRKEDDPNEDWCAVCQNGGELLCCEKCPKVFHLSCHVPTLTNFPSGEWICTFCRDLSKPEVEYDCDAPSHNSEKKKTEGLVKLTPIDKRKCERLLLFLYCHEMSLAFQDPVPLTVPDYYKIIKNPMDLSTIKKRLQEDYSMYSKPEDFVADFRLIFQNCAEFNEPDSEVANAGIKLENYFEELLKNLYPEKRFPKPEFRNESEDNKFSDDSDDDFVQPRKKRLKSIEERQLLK

[5] = molecular target: Cytochrome P450 2D6 (Homo sapiens, UniProt P10635); assay: Inhibition of recombinant human CYP2D6 expressed in Escherichia coli bactosomes using 4-methylaminomethyl-7-methoyxycoumarin as substrate after 10 mins by fluorescence assay; assay type: ADME
[6] = molecular target: Histone acetyltransferase KAT2B (Homo sapiens, UniProt Q92831); assay: Inhibition of human PCAF by BROMOscan assay
Chain of Histone acetyltransferase KAT2B (Q92831 whole entry): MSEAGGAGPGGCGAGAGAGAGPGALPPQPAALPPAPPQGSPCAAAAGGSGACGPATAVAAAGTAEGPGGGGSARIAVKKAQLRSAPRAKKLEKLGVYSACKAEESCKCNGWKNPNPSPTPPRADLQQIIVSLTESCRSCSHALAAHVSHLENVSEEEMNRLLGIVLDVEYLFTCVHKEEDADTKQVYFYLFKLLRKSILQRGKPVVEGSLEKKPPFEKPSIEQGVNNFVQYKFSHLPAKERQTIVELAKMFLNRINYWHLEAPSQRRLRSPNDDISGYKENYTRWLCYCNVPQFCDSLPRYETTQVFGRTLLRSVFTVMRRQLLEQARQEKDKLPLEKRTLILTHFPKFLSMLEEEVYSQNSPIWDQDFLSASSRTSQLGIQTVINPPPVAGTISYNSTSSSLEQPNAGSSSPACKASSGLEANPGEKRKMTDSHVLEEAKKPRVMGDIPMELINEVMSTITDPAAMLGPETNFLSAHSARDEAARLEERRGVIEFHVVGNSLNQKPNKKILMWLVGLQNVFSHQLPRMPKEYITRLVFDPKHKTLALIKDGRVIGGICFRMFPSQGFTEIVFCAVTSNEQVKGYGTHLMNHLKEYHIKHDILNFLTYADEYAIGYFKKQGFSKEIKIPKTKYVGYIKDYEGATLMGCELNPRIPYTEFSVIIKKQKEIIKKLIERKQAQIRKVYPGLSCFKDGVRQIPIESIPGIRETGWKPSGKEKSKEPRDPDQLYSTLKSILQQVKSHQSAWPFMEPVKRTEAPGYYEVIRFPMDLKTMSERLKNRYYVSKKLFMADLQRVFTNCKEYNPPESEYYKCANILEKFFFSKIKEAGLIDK

[7] = Fraction unbound in dog blood by rapid equilibrium dialysis method; assay type: ADME, tissue-based, Canis lupus familiaris
[8] = Oral bioavailability in Balb/c mouse at 3 mg/kg; assay type: ADME, organism-based; settings: in vivo
[9] = molecular target: Transcription initiation factor TFIID subunit 1-like (Homo sapiens, UniProt Q8IZX4); assay: Inhibition of human TAF1L by BROMOscan assay
[10] = Fraction unbound in mouse blood by rapid equilibrium dialysis method; assay type: ADME, tissue-based
[11] = molecular target: Histone acetyltransferase KAT2A (Homo sapiens, UniProt Q92830); assay: Inhibition of human GCN5 by BROMOscan assay
[12] = Blood clearance in Cynomolgus monkey at 1 mg/kg, iv as infusion and 3 mg/kg, po; assay type: ADME, organism-based, Macaca fascicularis; settings: whole blood
[13] = molecular target: Cytochrome P450 2C19 (Homo sapiens, UniProt P33261); assay: Inhibition of CYP2C19 (unknown origin) expressed in Escherichia coli bactosomes using 3-butyryl-7-methoxycoumarin as substrate after 10 mins by fluorescence assay; assay type: ADME
Chain of Cytochrome P450 2C19 (P33261 whole entry, the tested form may be a part): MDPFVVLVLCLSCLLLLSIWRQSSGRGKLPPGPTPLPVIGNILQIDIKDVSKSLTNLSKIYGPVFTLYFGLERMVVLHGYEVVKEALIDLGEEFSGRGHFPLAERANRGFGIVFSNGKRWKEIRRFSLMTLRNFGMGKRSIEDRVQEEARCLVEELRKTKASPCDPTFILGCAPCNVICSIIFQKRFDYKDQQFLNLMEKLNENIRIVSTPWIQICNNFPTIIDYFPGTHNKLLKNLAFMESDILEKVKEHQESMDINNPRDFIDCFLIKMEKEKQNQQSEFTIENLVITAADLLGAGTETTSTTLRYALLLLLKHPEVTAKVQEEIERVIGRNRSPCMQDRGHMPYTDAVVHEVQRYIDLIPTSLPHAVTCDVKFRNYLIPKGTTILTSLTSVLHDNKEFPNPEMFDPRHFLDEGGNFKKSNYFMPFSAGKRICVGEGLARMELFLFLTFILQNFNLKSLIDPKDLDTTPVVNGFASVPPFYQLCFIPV

[14] = Terminal half life in Cynomolgus monkey at 1 mg/kg, iv as infusion; assay type: ADME, organism-based, Macaca fascicularis; parameters: dose 1 mg/kg, route intravenous; settings: in vivo, read-out: beta t1/2 (converted)
[15] = molecular target: Bromodomain-containing protein 2 (Homo sapiens, UniProt P25440); assay: Inhibition of human BRD2 bromodomain 1 by BROMOscan assay
Chain of Bromodomain-containing protein 2 (P25440 whole entry): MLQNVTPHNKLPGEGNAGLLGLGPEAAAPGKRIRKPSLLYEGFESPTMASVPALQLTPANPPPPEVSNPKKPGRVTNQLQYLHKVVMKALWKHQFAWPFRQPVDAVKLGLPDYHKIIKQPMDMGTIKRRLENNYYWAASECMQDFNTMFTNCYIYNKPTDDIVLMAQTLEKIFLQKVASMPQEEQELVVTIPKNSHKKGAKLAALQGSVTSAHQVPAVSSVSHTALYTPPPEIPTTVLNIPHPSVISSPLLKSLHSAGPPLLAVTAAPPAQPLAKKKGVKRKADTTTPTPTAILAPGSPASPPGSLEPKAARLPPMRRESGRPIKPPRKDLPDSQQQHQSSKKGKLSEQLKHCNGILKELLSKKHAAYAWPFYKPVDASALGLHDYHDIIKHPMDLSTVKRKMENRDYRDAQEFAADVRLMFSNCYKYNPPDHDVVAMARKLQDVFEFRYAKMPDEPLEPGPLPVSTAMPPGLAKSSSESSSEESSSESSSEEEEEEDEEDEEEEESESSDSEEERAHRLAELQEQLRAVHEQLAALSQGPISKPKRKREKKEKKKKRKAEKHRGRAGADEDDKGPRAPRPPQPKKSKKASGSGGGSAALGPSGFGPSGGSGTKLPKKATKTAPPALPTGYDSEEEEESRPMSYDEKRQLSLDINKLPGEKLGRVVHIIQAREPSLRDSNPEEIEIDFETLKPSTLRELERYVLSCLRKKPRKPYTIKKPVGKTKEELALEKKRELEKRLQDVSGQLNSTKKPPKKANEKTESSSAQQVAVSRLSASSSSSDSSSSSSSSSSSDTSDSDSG

[16] = tested on: Hepatocyte; assay: Clearance in human hepatocytes assessed per gram of tissue at 1 uM by LC-MS/MS analysis; assay type: ADME, cell-based
[17] = molecular target: Bromodomain and PHD finger-containing protein 3 (Homo sapiens, UniProt Q9ULD4); assay: Inhibition of human BRPF3 by BROMOscan assay
[18] = molecular target: Bromodomain-containing protein 7 (Homo sapiens, UniProt Q9NPI1); assay: Inhibition of human BRD7 by BROMOscan assay
[19] = molecular target: ATPase family AAA domain-containing protein 2 (Homo sapiens, UniProt Q6PL18); assay: Inhibition of human ATAD2 by BROMOscan assay
[20] = tested on: Hepatocyte; assay: Clearance in rat hepatocytes assessed per gram of tissue at 1 uM by LC-MS/MS analysis; assay type: ADME, cell-based
[21] = molecular target: Bromodomain-containing protein 3 (Homo sapiens, UniProt Q15059); assay: Binding affinity to His6-tagged BRD3 (1 to 475 aa) (unknown origin) by SPR method
Chain of Bromodomain-containing protein 3 (Q15059 whole entry, the tested form may be a part): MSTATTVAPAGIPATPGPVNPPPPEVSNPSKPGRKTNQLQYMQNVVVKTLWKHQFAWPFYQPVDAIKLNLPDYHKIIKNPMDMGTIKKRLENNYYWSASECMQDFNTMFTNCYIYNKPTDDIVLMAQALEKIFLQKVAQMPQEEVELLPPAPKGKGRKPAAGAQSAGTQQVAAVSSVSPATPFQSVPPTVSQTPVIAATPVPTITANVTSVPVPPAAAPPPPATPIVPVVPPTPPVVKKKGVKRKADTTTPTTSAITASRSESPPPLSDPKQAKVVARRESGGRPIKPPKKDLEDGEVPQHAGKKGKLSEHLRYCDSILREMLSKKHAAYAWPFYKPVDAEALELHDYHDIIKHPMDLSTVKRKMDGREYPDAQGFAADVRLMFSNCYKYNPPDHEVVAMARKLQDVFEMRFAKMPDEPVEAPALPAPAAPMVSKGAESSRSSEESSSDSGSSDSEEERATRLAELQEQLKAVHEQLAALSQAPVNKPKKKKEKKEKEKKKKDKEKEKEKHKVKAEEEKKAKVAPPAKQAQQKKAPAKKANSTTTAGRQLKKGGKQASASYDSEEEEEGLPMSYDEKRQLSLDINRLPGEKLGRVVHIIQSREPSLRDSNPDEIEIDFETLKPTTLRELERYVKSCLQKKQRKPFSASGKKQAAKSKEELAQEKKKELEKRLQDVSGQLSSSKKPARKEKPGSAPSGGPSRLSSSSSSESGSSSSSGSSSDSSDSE

[22] = Terminal half life in rat at 1 mg/kg, iv as infusion; assay type: ADME, organism-based; parameters: dose 1 mg/kg, route intravenous; settings: in vivo, read-out: beta t1/2
[23] = Terminal half life in beagle dog at 1 mg/kg, iv as infusion; assay type: ADME, organism-based, Canis lupus familiaris; parameters: dose 1 mg/kg, route intravenous; settings: in vivo, read-out: beta t1/2 (converted)
[24] = molecular target: E3 ubiquitin-protein ligase TRIM33 (Homo sapiens, UniProt Q9UPN9); assay: Inhibition of human TIF1gamma PHD/bromodomain by BROMOscan assay
Chain of E3 ubiquitin-protein ligase TRIM33 (Q9UPN9 whole entry, the tested form may be a part): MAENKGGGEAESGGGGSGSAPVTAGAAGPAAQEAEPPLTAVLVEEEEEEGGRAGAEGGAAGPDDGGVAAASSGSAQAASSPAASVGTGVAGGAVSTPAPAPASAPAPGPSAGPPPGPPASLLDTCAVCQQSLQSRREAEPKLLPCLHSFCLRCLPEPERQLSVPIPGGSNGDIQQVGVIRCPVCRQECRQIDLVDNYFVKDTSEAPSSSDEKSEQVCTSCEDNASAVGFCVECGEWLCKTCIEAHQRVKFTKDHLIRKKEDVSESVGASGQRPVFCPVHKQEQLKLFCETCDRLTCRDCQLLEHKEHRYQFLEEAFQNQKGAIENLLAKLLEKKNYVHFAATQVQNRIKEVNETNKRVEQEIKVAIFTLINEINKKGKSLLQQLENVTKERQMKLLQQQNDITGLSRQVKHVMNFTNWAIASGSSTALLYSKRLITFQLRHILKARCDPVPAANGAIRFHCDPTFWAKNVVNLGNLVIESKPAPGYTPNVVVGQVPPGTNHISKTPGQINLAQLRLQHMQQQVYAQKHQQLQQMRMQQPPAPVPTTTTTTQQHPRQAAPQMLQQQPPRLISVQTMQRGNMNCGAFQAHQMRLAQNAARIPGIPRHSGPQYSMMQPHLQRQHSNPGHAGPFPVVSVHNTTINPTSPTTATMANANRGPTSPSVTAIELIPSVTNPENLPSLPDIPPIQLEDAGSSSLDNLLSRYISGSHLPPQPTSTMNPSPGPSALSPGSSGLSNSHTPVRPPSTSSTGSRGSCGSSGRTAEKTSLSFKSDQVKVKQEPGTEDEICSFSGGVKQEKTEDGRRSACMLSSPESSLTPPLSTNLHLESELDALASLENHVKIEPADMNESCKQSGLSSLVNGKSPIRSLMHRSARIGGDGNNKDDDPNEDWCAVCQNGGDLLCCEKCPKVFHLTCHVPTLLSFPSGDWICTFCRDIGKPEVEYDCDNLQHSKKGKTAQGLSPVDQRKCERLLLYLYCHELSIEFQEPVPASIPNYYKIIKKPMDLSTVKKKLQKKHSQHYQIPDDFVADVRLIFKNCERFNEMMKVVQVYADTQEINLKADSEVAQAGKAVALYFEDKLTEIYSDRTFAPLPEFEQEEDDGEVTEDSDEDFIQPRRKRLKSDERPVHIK

[25] = Blood clearance in beagle dog at 1 mg/kg, iv as infusion and 3 mg/kg, po; assay type: ADME, organism-based, Canis lupus familiaris; settings: whole blood
[26] = molecular target: Transcription initiation factor TFIID subunit 1 (Homo sapiens, UniProt P21675); assay: Inhibition of human TAF1 by BROMOscan assay

Compound: CC(=O)N1c2ccc(-c3ccc(C(=O)O)cc3)cc2[C@H](Nc2ccc(Cl)cc2)C[C@@H]1C
- half-life [1]: 3.6 h
- Vd [2]: 0.48 L/kg
- pKd [3]: 5.20
- pIC50 [4]: 5.00
- pIC50 [5]: < 4.48
- pIC50 [6]: < 5.10
- fraction unbound [7]: 0.065
- bioavailability [8]: 45%
- pIC50 [9]: 4.50
- fraction unbound [10]: 0.013
- pIC50 [11]: < 6.50
- clearance [12]: 3 mL/min/kg
- pIC50 [13]: 4.92
- half-life [14]: 2.7 h
- pIC50 [15]: < 4.50
- CLH [16]: < 0.85 mL/min/g
- pIC50 [17]: < 9.00
- pIC50 [18]: < 8.90
- pIC50 [19]: < 4.50
- CLH [20]: < 0.85 mL/min/g
- pKd [21]: 7.70
- half-life [22]: > 8 h
- half-life [23]: 1.8 h
- pIC50 [24]: < 5.00
- clearance [25]: 6 mL/min/kg
- pIC50 [26]: 4.50
